We go through two compounds from ChEMBL document CHEMBL1157727, “Novel small molecule bradykinin B1 receptor antagonists. Part 1: benzamides and semicarbazides” (Bioorg Med Chem Lett, 2010).

A short description of data set [1]: in vivo. The note with it: Wistar, rat, iv, 1 mg/kg.
Data set [2] can be described thus: in vivo. The note with it: Wistar, rat, po, 1 mg/kg.
The nature of data set [3]: in vivo. The note with it: Wistar, rat, 1 mg/kg.
A short description of another data set: physchem. The note with it: buffer.
The nature of data set [4]: in vitro. The note with it: rat, microsomes.
Data set [5] in a line: in vitro. The note with it: human, microsomes.

Molecules are shown by their SMILES. ≈ marks a conversion by molar mass, not a printed value.

`CCN(NC(=O)C(F)(F)F)C(=O)N[C@H](C)c1ncc(-c2cc(Cl)cc(Cl)c2OCC(F)F)cc1F` displayed a clearance in the data set “in vivo [1]” of 7 mL/min/kg. Besides, the bioavailability in the data set “in vivo [2]” is above 44%. The same compound gave a half-life in the data set “in vivo [3]” of 135 min.

In the data set “physchem”, `C[C@@H]1CC[C@H](C)N1C(=O)c1ccc([C@@H](C)NC(=O)C2(NC(=O)c3cc(F)cc(C(F)(F)F)c3)CC2)c(F)c1` displayed a solubility of 42 µM (≈ 22.6 µg/mL). The fraction remaining at 1 h in “in vitro [4]” was found to be 45%; in the data set “in vitro [5]”, 9%.
